From patent publication EP1120414A1, “DISUBSTITUTED MALEIMIDE COMPOUNDS AND MEDICINAL UTILIZATION THEREOF” (Japan Tobacco Inc., priority 1998, dated 2000)
pIC50: −log10 of the molar value. Where two headings read alike, the source gives them in different places.

Columns and labels:
PKC α = molecular target: T1, PKC α (Homo sapiens, UniProt P17252); test: PKC enzyme assay (BIOTRAK Protein kinase C enzyme assay system, 32P-ATP phosphorylation of peptide […]); assay type: biochemical
T1 construct: purchased CALBIOCHEM
Description: (§1) As the reagent for enzyme assay, BIOTRAK Protein kinase C enzyme assay system (hereinafter the system, Amersham), and as the PKC enzyme standard product, Protein Kinase C, Human Recombinant (CALBIOCHEM) were purchased and used in the assay. A substrate mixture was prepared by mixing calcium buffer (12 mM calcium acetate, 50 mM Tris/HCl pH 7.5, 0.05% (w/v) sodium azide), Lipid (0.3 mg/ml La-phosphatidyl-L-serine, […] phorbol 12-myristate 13-acetate, 50 mM Tris/HCl pH 7.5, 0.05% (w/v) sodium azide), peptide buffer (900 µM peptide […]), 50 mM Tris/HCl pH 7.5, 0.05% (w/v) sodium azide), DTT buffer (30 mM dithiothreitol, 50 mM Tris/HCl pH 7.5, 0.05% (w/v) sodium azide), and magnesium ATP buffer (1.2 mM ATP, […] pH 7.4, 72 mM magnesium chloride) all attached to the system in a ratio of 1:1:1:1:0.8 and adding [ y -32P]ATP (Amersham, cat. […] The PKC enzyme standard product was diluted with an assay buffer (10 mM Hepes pH 7.4, 0.01% Triton X-100) to a concentration of 400 ng/ml and used as the enzyme solution. The substrate mixture and a test substance (diluted to the final concentration of 1 nM-10 µM with dimethyl sulfoxide (DMSO)) were mixed at a ratio of 20:1. The enzyme solution was added in the amount equivalent to the substrate mixture and mixed, which was followed by incubation at 37°C for 15 minutes. The reaction terminator (300 mM orthophosphoric acid containing carmosine red) attached to the system was added in the amount equivalent to the substrate mixture to end the reaction, and the reaction mixture was spotted on a phosphocellulose paper (Whatman, P-81), washed twice with 75 mM orthophosphoric acid and assayed for radioactivity by BAS2000 (Fuji film).
(§2) The ratio of the radioactivity of the addition of the test substance to the addition of DMSO was determined, and IC50 was calculated from inhibition at each concentration.

PKC β II = molecular target: T2, PKC β II (Homo sapiens, UniProt P05771); test: as above; assay type: biochemical; conditions: for Ratio α/β: IC50 PKC α / IC50 PKC β II
T2 construct: purchased CALBIOCHEM
Text: The method for determining the PKC inhibitory activity of the compound of the present invention is explained in the following. Inasmuch as PKCβII is present in greater number in intravascular cells than PKCβI, PKCβII was mainly used here to test the enzyme activity.
as §1, §2

[1] = read-out: Inhibition of PKC activity IC50 PKC α; Protein Kinase C, Human Recombinant; test substance 1 nM-10 µM; 37°C, 15 minutes
[2] = read-out: Inhibition of PKC activity IC50 PKC β II, Protein Kinase C, Human Recombinant, test substance 1 nM-10 µM, 37°C, 15 minutes
[3] = Protein Kinase C, Human Recombinant; test substance 1 nM-10 µM; 37°C, 15 minutes; read-out: Inhibition of PKC activity IC50 PKC α
[4] = Protein Kinase C, Human Recombinant, test substance 1 nM-10 µM, 37°C, 15 minutes, read-out: Inhibition of PKC activity IC50 PKC β II

T2 sequence (P05771 other isoform, or with tags, fused parts or gaps): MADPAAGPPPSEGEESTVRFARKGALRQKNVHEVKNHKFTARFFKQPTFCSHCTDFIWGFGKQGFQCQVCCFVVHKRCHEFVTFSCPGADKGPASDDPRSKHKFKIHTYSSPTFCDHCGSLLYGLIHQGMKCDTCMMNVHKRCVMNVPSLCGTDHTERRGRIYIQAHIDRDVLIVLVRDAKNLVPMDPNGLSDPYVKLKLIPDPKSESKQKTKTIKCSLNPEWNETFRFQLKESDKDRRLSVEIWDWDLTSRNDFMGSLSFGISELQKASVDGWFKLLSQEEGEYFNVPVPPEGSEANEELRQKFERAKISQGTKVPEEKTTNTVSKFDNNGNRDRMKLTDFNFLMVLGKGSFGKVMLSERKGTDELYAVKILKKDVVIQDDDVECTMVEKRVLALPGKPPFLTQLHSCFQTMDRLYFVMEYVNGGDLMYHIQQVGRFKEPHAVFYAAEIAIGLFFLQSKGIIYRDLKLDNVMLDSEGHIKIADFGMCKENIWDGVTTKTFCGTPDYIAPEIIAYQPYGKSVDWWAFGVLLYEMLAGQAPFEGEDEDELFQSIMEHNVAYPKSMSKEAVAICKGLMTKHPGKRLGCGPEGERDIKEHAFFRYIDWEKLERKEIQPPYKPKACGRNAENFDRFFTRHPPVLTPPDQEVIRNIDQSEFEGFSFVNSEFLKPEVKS

pIC50 (PKC α; [1])	Ratio α/β (PKC β II)	pIC50 (PKC β II; [2])	pIC50 (PKC α; [3])	pIC50 (PKC β II; [4])	pIC50 (PKC β II)	SMILES
–	29	–	5.15	6.61	–	Cc1nccn1CCn1cc(C2=C(Nc3ccccc3)C(=O)NC2=O)c2ccccc21 [Example 2-63, 3-[1-{2-(2-methyl-imidazol-1-yl)ethyl}-1H-indol-3-yl]-4-(phenylamino)-1H-pyrrole-2,5-dione]
–	17	–	6.45	7.68	–	O=C1NC(=O)C(c2cn(CCCn3ccnc3)c3ccccc23)=C1Nc1cccc(Cl)c1 [Example 2-39, 3-[(3-chlorophenyl)amino]-4-[1-(3-imidazol-1-ylpropyl)-1H-indol-3-yl]-1H-pyrrole-2,5-dione]
–	–	–	5.14	6.65	–	O=C1NC(=O)C(c2c[nH]c3ccccc23)=C1Nc1ccccc1 [Example 1-2, 3-(1H-indol-3-yl)-4-(phenylamino)-1H-pyrrole-2,5-dione]
–	61	–	6.07	7.85	–	O=C1NC(=O)C(c2c3n(c4ccccc24)CCC(CO)C3)=C1Nc1ccccc1 (centres unmarked) [Example 4-1, 3-[8-hydroxymethyl-6,7,8,9-tetrahydropyrido[1,2-a]indol-10-yl]-4-(phenylamino)-1H-pyrrole-2,5-dione]
6.69	68	8.52	–	–	–	CCN(C)C[C@H]1CCn2c(c(C3=C(Nc4ccccc4)C(=O)NC3=O)c3ccccc32)C1 [Example 4-24]
–	61	–	5.74	7.52	–	O=C1NC(=O)C(c2cn(CCCCO)c3ccccc23)=C1Nc1ccccc1 [Example 2-5, 3-[1-(4-hydroxybutyl)-1H-indol-3-yl]-4-(phenylamino)-1H-pyrrole-2,5-dione]
–	53	–	6.50	8.22	–	O=C1NC(=O)C(c2cn(CCCn3ccnc3)c3ccccc23)=C1Nc1ccc(F)cc1 [Example 2-68, 3-[(4-fluorophenyl)amino]-4-[1-(3-imidazol-1-ylpropyl)-1H-indol-3-yl]-1H-pyrrole-2,5-dione]
–	37	–	5.08	6.65	–	O=C1NC(=O)C(c2c[nH]c3ccccc23)=C1Nc1cccc(Br)c1 [Example 1-10, 3-[(3-bromophenyl)amino]-4-(1H-indol-3-yl)-1H-pyrrole-2,5-dione]
–	36	–	5.63	7.18	–	O=C1NC(=O)C(c2cn(CCN3CCC(O)CC3)c3ccccc23)=C1Nc1ccccc1 [Example 2-47, 3-[1-{2-(4-hydroxypiperidino)ethyl}-1H-indol-3-yl]-4-(phenylamino)-1H-pyrrole-2,5-dione]
5.83	106	7.85	–	–	–	O=C1NC(=O)C(c2c3n(c4ccccc24)C[C@@H](CO)C=C3)=C1Nc1ccccc1 [Example 4-53]
–	49	–	6.14	7.82	–	CN(C)CCCCn1cc(C2=C(Nc3ccccc3)C(=O)NC2=O)c2ccccc21 [Example 2-10, 3-[1-(4-dimethylaminobutyl)-1H-indol-3-yl]-4-(phenylamino)-1H-pyrrole-2,5-dione]

Continued, molecule first:

SMILES	pIC50 (PKC α; [1])	Ratio α/β (PKC β II)	pIC50 (PKC β II; [2])	pIC50 (PKC α; [3])	pIC50 (PKC β II; [4])	pIC50 (PKC β II)
CNCC1Cc2c(C3=C(Nc4ccc(F)cc4)C(=O)NC3=O)c3ccccc3n2C1 (centres unmarked) [Example 4-32]	6.64	60	8.40	–	–	–
CN(C)C1CCN(CCCn2cc(C3=C(Nc4ccccc4)C(=O)NC3=O)c3ccccc32)CC1 [Example 2-34, 3-[1-{3-(4-dimethylaminopiperidino)propyl}-1H-indol-3-yl]-4-(phenylamino)-1H-pyrrole-2,5-dione]	–	57	–	6.07	7.82	–
O=C1NC(=O)C(c2cn(CCCn3cncn3)c3ccccc23)=C1Nc1ccccc1 [Example 2-38, 3-(phenylamino)-4-[1-{3-(1,2,4-triazol-1-yl)propyl}-1H-indol-3-yl]-1H-pyrrole-2,5-dione]	–	25	–	< 6.00	7.40	–
O=C1NC(=O)C(c2c3n(c4ccccc24)C[C@H](CO)C3)=C1Nc1ccccc1 [Example 4-58]	5.99	73	–	–	7.85	–
O=C1NC(=O)C(c2c3n(c4ccccc24)CC(Cn2ccnc2)C3)=C1Nc1ccccc1 (centres unmarked) [Example 4-37]	6.23	85	8.15	–	–	–
CCN(C)C[C@@H]1CCc2c(C3=C(Nc4ccc5c(c4)OCO5)C(=O)NC3=O)c3ccccc3n2C1 [Example 4-49]	5.57	82	7.48	–	–	–
CN(C)C[C@H]1Cc2c(C3=C(Nc4ccccc4)C(=O)NC3=O)c3ccccc3n2C1 [Example 4-64]	6.83	37	–	–	8.40	–
O=C1NC(=O)C(c2cn(CCCCCN3CCC(O)CC3)c3ccccc23)=C1Nc1ccccc1 [Example 2-28, 3-[1-{5-(4-hydroxypiperidino)pentyl}-1H-indol-3-yl]-4-(phenylamino)-1H-pyrrole-2,5-dione]	–	43	–	5.97	7.60	–
O=C1NC(=O)C(c2cn(CCCn3ccnc3)c3ccccc23)=C1Nc1ccc(Cl)cc1 [Example 2-64, 3-[(4-chlorophenyl)amino]-4-[1-(3-imidazol-1-ylpropyl)-1H-indol-3-yl]-1H-pyrrole-2,5-dione]	–	37	–	6.13	7.70	–
O=C1NC(=O)C(c2cn(CCCN3CCCCC3)c3ccccc23)=C1Nc1ccccc1 [Example 2-20, 3-[1-(3-piperidinopropyl)-1H-indol-3-yl]-4-(phenylamino)-1H-pyrrole-2,5-dione]	–	–	–	6.14	7.77	–
CCN(CCCn1cc(C2=C(Nc3ccccc3)C(=O)NC2=O)c2ccccc21)Cc1ccncc1 [Example 2-18, 3-[1-{3-[N-ethyl-N-(4-pyridylmethyl)amino]propyl}-1H-indol-3-yl]-4-(phenylamino)-1H-pyrrole-2,5-dione]	–	41	–	5.12	6.74	–
O=C1NC(=O)C(c2c3n(c4ccccc24)C[C@@H](CN2CCOCC2)C3)=C1Nc1ccccc1 [Example 4-71]	5.35	108	7.39	–	–	–
O=C1NC(=O)C(c2cn(CCCN3CCC(Cc4ccccc4)CC3)c3ccccc23)=C1Nc1ccccc1 [Example 2-48, 3-[1-{3-(4-benzylpiperidino)propyl}-1H-indol-3-yl]-4-(phenylamino)-1H-pyrrole-2,5-dione]	–	77	–	5.86	7.74	–
O=C1NC(=O)C(c2cn(CCCN3CCC(N4CCCCC4)CC3)c3ccccc23)=C1Nc1ccccc1 [Example 2-31, 3-(phenylamino)-4-[1-{3-(4-piperidinopiperidino)propyl}-1H-indol-3-yl]-1H-pyrrole-2,5-dione]	–	59	–	6.15	7.92	–
CCN(C)C[C@H]1Cc2c(C3=C(Nc4ccc(OC)cc4)C(=O)NC3=O)c3ccccc3n2C1 [Example 4-63]	5.96	69	7.80	–	–	–
O=C1NC(=O)C(c2cn(CCCN3CCCCCC3)c3ccccc23)=C1Nc1ccccc1 [Example 2-23, 3-[1-(3-azacycloheptan-1-ylpropyl)-1H-indol-3-yl]-4-(phenylamino)-1H-pyrrole-2,5-dione]	–	–	–	–	–	8.00
